Data published in ChEMBL document CHEMBL2074082, “Characterization of the monocarboxylate transporter 1 expressed in Xenopus laevis oocytes by changes in cytosolic pH” (Biochem J, 1998).

Assays:
[1] = molecular target: T1, Monocarboxylate transporter 1 (Rattus norvegicus) (UniProt P53987); experiment: TP_TRANSPORTER: change in intracellular pH(pHi)value in Xenopus laevis oocytes; format: functional, cell-based; conditions: Oocyte
T1 sequence (whole entry): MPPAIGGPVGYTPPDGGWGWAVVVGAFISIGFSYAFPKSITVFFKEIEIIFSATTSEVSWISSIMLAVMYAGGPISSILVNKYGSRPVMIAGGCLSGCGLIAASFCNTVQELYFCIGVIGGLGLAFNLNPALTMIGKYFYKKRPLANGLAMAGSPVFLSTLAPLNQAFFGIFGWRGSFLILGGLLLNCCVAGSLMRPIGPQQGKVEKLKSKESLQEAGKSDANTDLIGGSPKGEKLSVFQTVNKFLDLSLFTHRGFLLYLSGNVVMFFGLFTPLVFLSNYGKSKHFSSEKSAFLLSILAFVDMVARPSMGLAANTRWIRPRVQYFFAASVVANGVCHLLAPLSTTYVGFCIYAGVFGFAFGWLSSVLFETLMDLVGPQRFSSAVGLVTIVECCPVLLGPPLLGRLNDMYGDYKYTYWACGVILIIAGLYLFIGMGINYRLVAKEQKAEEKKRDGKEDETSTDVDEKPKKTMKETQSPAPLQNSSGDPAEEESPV

[2] = molecular target: T1, Monocarboxylate transporter 1 (Rattus norvegicus); experiment: TP_TRANSPORTER: inhibition of lactate uptake(pHi charge) in Xenopus laevis oocytes; format: functional, cell-based; conditions: Oocyte

SMILES | Activity [1] | Activity [2]
CC(=O)CC(=O)O | substrate [+] | –
N#C/C(=C\c1ccc(O)cc1)C(=O)O | – | inhibitor [+]
CC(O)CC(=O)O (racemic) | substrate [+] | –
